Assay results: PubChem BioAssay AID1259407 (Chemical Carcinogenesis Research Information System (CCRIS), 2018)
Active and inactive are the calls of the source. No rule for the calls is given here.

System: CCRIS mutagenicity, Ames/micronucleus/aberration tests
Assay: CCRIS mutagenicity studies
[1] = Test System: AMES SALMONELLA TYPHIMURIUM, Strain/Indicator: TA98, Metabolic Activation: NONE, Method: STANDARD PLATE
[2] = Test System: AMES SALMONELLA TYPHIMURIUM, Strain/Indicator: TA98, Metabolic Activation: RAT, LIVER, S-9, AROCLOR 1254, Method: STANDARD PLATE
[3] = Test System: AMES SALMONELLA TYPHIMURIUM, Strain/Indicator: TA100, Metabolic Activation: NONE, Method: STANDARD PLATE
[4] = Test System: AMES SALMONELLA TYPHIMURIUM, Strain/Indicator: TA100, Metabolic Activation: RAT, LIVER, S-9, AROCLOR 1254, Method: STANDARD PLATE
[5] = Test System: AMES SALMONELLA TYPHIMURIUM, Strain/Indicator: TA1535, Metabolic Activation: NONE, Method: STANDARD PLATE
[6] = Test System: AMES SALMONELLA TYPHIMURIUM, Strain/Indicator: TA1535, Metabolic Activation: RAT, LIVER, S-9, AROCLOR 1254, Method: STANDARD PLATE
[7] = Test System: AMES SALMONELLA TYPHIMURIUM, Strain/Indicator: TA1537, Metabolic Activation: NONE, Method: STANDARD PLATE
[8] = Test System: AMES SALMONELLA TYPHIMURIUM, Strain/Indicator: TA1537, Metabolic Activation: RAT, LIVER, S-9, AROCLOR 1254, Method: STANDARD PLATE
[9] = Test System: AMES SALMONELLA TYPHIMURIUM, Strain/Indicator: TA1538, Metabolic Activation: NONE, Method: STANDARD PLATE
[10] = Test System: AMES SALMONELLA TYPHIMURIUM, Strain/Indicator: TA1538, Metabolic Activation: RAT, LIVER, S-9, AROCLOR 1254, Method: STANDARD PLATE
[11] = Test System: MOUSE LYMPHOMA, Strain/Indicator: L5178Y (TK+/TK-), Metabolic Activation: NONE, Method: SUSPENSION/PLATE

CC(C)C[C@H]1C(=O)N2CCC[C@H]2[C@]2(O)O[C@](NC(=O)[C@@H]3C[C@@H]4c5cccc6[nH]cc(c56)C[C@H]4N(C)C3)(C(C)C)C(=O)N12
mutagenic call [1]: inactive; negative
mutagenic call [2]: inactive; negative
mutagenic call [3]: inactive; negative
mutagenic call [4]: inactive; negative
mutagenic call [5]: inactive; negative
mutagenic call [6]: inactive; negative
mutagenic call [7]: inactive; negative
mutagenic call [8]: inactive; negative
mutagenic call [9]: inactive; negative
mutagenic call [10]: inactive; negative
mutagenic call [11]: inactive; negative
mutagenic call (Test System: MOUSE LYMPHOMA, Strain/Indicator: L5178Y (TK+/TK-), Metabolic Activation: RAT, LIVER, S-9, AROCLOR 1254, Method: SUSPENSION/PLATE): inactive; negative
mutagenic call (Test System: UDS RAT HEPATOCYTES, Strain/Indicator: THY INCORP, Metabolic Activation: NONE): inactive; negative

c1cc2sncc2cc1OCC1CO1 (centres undefined)
mutagenic call (Test System: AMES SALMONELLA TYPHIMURIUM, Strain/Indicator: TA100, Metabolic Activation: S-9, Method: STANDARD PLATE): active; positive

C=C(Cl)CSC(=S)N(CC)CC
mutagenic call [3]: inactive; negative
mutagenic call (Test System: AMES SALMONELLA TYPHIMURIUM, Strain/Indicator: TA100, Metabolic Activation: RAT, LIVER, CYTOSOL, AROCLOR 1254, Method: STANDARD PLATE): inactive; negative
mutagenic call (Test System: AMES SALMONELLA TYPHIMURIUM, Strain/Indicator: TA100, Metabolic Activation: RAT, LIVER, MICROSOMES, AROCLOR 1254, Method: STANDARD PLATE): inactive; negative
mutagenic call (Test System: AMES SALMONELLA TYPHIMURIUM, Strain/Indicator: TA100, Metabolic Activation: RAT, LIVER, MICROSOMES, CYTOSOL, AROCLOR 1254, Method: STANDARD PLATE): active; positive
mutagenic call [4]: active; positive

CC[n+]1c2ccccc2nc2ccccc21
mutagenic call [1]: inactive; negative
mutagenic call [2]: active; positive
mutagenic call [3]: inactive; negative
mutagenic call [4]: inactive; negative
mutagenic call (Test System: AMES SALMONELLA TYPHIMURIUM, Strain/Indicator: TA102, Metabolic Activation: NONE, Method: STANDARD PLATE): inactive; negative
mutagenic call [8]: active; positive
mutagenic call [9]: inactive; negative
mutagenic call [10]: inactive; negative
mutagenic call (Test System: AMES SALMONELLA TYPHIMURIUM, Strain/Indicator: TA2638, Metabolic Activation: NONE, Method: STANDARD PLATE): inactive; negative
mutagenic call (Test System: E. COLI, Strain/Indicator: WP2 (PKM101), Metabolic Activation: NONE, Method: STANDARD PLATE): inactive; negative
mutagenic call (Test System: E. COLI, Strain/Indicator: WP2 UVRA (PKM101), Metabolic Activation: NONE, Method: STANDARD PLATE): active; positive

O=C(Cl)c1ccc(Cl)cc1
mutagenic call (Test System: AMES SALMONELLA TYPHIMURIUM, Strain/Indicator: TA98, Metabolic Activation: NONE, Method: PREINCUBATION): inactive; negative
mutagenic call (Test System: AMES SALMONELLA TYPHIMURIUM, Strain/Indicator: TA98, Metabolic Activation: RAT LIVER S-9, PHENOBARBITAL AND BETA-NAPHTHOFLAVONE, Method: PREINCUBATION): inactive; negative
mutagenic call (Test System: AMES SALMONELLA TYPHIMURIUM, Strain/Indicator: TA100, Metabolic Activation: NONE, Method: PREINCUBATION): inactive; negative
mutagenic call (Test System: AMES SALMONELLA TYPHIMURIUM, Strain/Indicator: TA100, Metabolic Activation: RAT LIVER S-9, PHENOBARBITAL AND BETA-NAPHTHOFLAVONE, Method: PREINCUBATION): inactive; negative
mutagenic call (Test System: AMES SALMONELLA TYPHIMURIUM, Strain/Indicator: TA102, Metabolic Activation: NONE, Method: PREINCUBATION): inactive; negative
mutagenic call (Test System: AMES SALMONELLA TYPHIMURIUM, Strain/Indicator: TA102, Metabolic Activation: RAT LIVER S-9, PHENOBARBITAL AND BETA-NAPHTHOFLAVONE, Method: PREINCUBATION): inactive; negative
mutagenic call (Test System: AMES SALMONELLA TYPHIMURIUM, Strain/Indicator: TA104, Metabolic Activation: NONE, Method: PREINCUBATION): inactive; negative
mutagenic call (Test System: AMES SALMONELLA TYPHIMURIUM, Strain/Indicator: TA104, Metabolic Activation: RAT LIVER S-9, PHENOBARBITAL AND BETA-NAPHTHOFLAVONE, Method: PREINCUBATION): inactive; negative
mutagenic call (Test System: AMES SALMONELLA TYPHIMURIUM, Strain/Indicator: TA1535, Metabolic Activation: NONE, Method: PREINCUBATION): inactive; negative
mutagenic call (Test System: AMES SALMONELLA TYPHIMURIUM, Strain/Indicator: TA1535, Metabolic Activation: RAT LIVER S-9, PHENOBARBITAL AND BETA-NAPHTHOFLAVONE, Method: PREINCUBATION): inactive; negative
mutagenic call (Test System: AMES SALMONELLA TYPHIMURIUM, Strain/Indicator: TA1537, Metabolic Activation: NONE, Method: PREINCUBATION): inactive; negative
mutagenic call (Test System: AMES SALMONELLA TYPHIMURIUM, Strain/Indicator: TA1537, Metabolic Activation: RAT LIVER S-9, PHENOBARBITAL AND BETA-NAPHTHOFLAVONE, Method: PREINCUBATION): inactive; negative
mutagenic call (Test System: E.COLI, Strain/Indicator: WP2UVRA/PKM101, Metabolic Activation: NONE, Method: PREINCUBATION): inactive; negative
mutagenic call (Test System: E.COLI, Strain/Indicator: WP2UVRA/PKM101, Metabolic Activation: RAT LIVER S-9, PHENOBARBITAL AND BETA-NAPHTHOFLAVONE, Method: PREINCUBATION): inactive; negative
mutagenic call (Test System: E.COLI, Strain/Indicator: WP2UVRA, Metabolic Activation: NONE, Method: PREINCUBATION): inactive; negative
mutagenic call (Test System: E.COLI, Strain/Indicator: WP2UVRA, Metabolic Activation: RAT LIVER S-9, PHENOBARBITAL AND BETA-NAPHTHOFLAVONE, Method: PREINCUBATION): inactive; negative

Cc1c(C)c(N)c(C)c(C)c1N
mutagenic call [1]: inactive; negative
mutagenic call [2]: inactive; negative
mutagenic call [3]: inactive; negative
mutagenic call [4]: inactive; negative
mutagenic call [5]: inactive; negative
mutagenic call [6]: inactive; negative
mutagenic call [7]: inactive; negative
mutagenic call [8]: inactive; negative
mutagenic call [9]: inactive; negative
mutagenic call [10]: inactive; negative

Cc1cnc2c(n1)c(C)cc1c2nc(N)n1C
mutagenic call [2]: active; positive

CCNC(=O)CNC(=O)C=[N+]=[N-]
mutagenic call (Test System: UDS RODENT CELLS, Strain/Indicator: THY INCORP (NON-S-PHASE), Metabolic Activation: NONE, Method: AUTORADIOGRAPHY): active; positive

C[C@]12CC[C@@H]3c4ccc(O)cc4CC[C@H]3C13CCC2(O)CC3
mutagenic call (End Point: IN VITRO CHROMOSOMAL ABERRATIONS, Test System: HUMAN PERIPHERAL LYMPHOCYTES, Metabolic Activation: NONE): inactive; negative at 20-24 hr; positive (high doses) at 48 hr
mutagenic call (End Point: IN VITRO CHROMOSOMAL ABERRATIONS, Test System: HUMAN PERIPHERAL LYMPHOCYTES, Metabolic Activation: RAT, LIVER, S-9, AROCLOR 1254): inactive; negative

Oc1ccc2ccc3c4c(ccc3c2c1)[C@@H](O)[C@H](O)C=C4
mutagenic call [1]: inactive; negative
mutagenic call [2]: active; positive
mutagenic call [3]: inactive; negative
mutagenic call [4]: active; positive

C=C(C)C(=O)OCCOCCOCCOCCOC(=O)C(=C)C
mutagenic call [11]: active; positive

Cc1ccc(N=[N+]([O-])c2ccc(C)c([N+](=O)[O-])c2)cc1[N+](=O)[O-]
mutagenic call (Test System: AMES SALMONELLA TYPHIMURIUM, Strain/Indicator: TA98, Metabolic Activation: NONE, Method: SUSPENSION/PLATE): inactive; negative
mutagenic call (Test System: AMES SALMONELLA TYPHIMURIUM, Strain/Indicator: TA98, Metabolic Activation: RAT, LIVER, S-9, PHENOBARBITAL AND 5,6-BENZOFLAVONE, Method: SUSPENSION/PLATE): inactive; negative
mutagenic call (Test System: AMES SALMONELLA TYPHIMURIUM, Strain/Indicator: TA100, Metabolic Activation: NONE, Method: SUSPENSION/PLATE): inactive; negative
mutagenic call (Test System: AMES SALMONELLA TYPHIMURIUM, Strain/Indicator: TA100, Metabolic Activation: RAT, LIVER, S-9, PHENOBARBITAL AND 5,6-BENZOFLAVONE, Method: SUSPENSION/PLATE): inactive; negative
